Test results reported in article doi:10.1101/252742v1 (bioRxiv, 2018).

Columns and labels:
[1] = Plasma pharmacokinetics in mice; type: in vivo; conditions: single intravenous (i.v.) injection of 0.597 mg/kg
[2] = tested on: UM-SCC47 cells; experiment: Cell cycle analysis by flow cytometry; type: cell-based, human; conditions: UM-SCC47, 30 uM peptide
[3] = Stability of peptide incubated in human plasma; type: in vitro ADME; conditions: incubated in PBS or human plasma for up to 72h at 37°C, then tested for activity
[4] = tested on: normal oral keratinocytes (NOKs), human tonsillar epithelial cells (HTEs), HaCaT keratinocytes and MCF10A cells; experiment: Cell proliferation assay; type: cell-based; conditions: 0, 3, 10 or 30 μM peptide, four-day treatment; cell number as % of untreated
[5] = tested on: p38MAPK; experiment: p38MAPK activation; type: cell-based, human; conditions: NOKs, 30 μM peptide, 15 min to 16 hr
[6] = tested on: Chk1, Chk2, H2AX; experiment: DNA damage response effector activation by western blot; type: cell-based, human; conditions: UM-SCC47 or MDA-MB-231 cells, 30 μM peptide up to 6 hr
[7] = tested on: HaCaT keratinocytes; experiment: Cell cycle analysis by flow cytometry; type: cell-based, human; conditions: 30 uM peptide, 16 hr
[8] = tested on: UM-SCC47 cells; type: cell-based, human; conditions: UM-SCC47, 30 μM peptide for 3 hr, EdU for the last 45 min
[9] = tested on: PCNA; experiment: DNA-bound PCNA staining on chromatin; type: cell-based, human; conditions: UM-SCC47, detergent-extracted after 3 hr treatment with 30 μM peptide
[10] = tested on: NOKs and MCF10A cells; experiment: DNA synthesis by EdU incorporation, non-tumorigenic cells; type: cell-based, human; conditions: 30 μM peptide for 1, 3 or 6 hr (up to 16 hr), then EdU 45 min
[11] = tested on: c-Abl; experiment: c-Abl activity; type: cell-based, human; conditions: UM-SCC47, 30 μM peptide for 3 hr

SSTNEGFR
half-life in plasma [1]: ~ 42 hr | cells in G1 ([2]; 3 hr): 53.1% | cells in G2 ([2]; 3 hr): 0.0% | cells in S ([2]; 3 hr): 46.9% | cells in G1 ([2]; 16 hr): 48.5% | cells in G2 ([2]; 16 hr): 1.7% | cells in S ([2]; 16 hr): 49.8% | stability in human plasma [3]: remarkably stable | growth of non-tumorigenic cells [4]: not affected | p38MAPK activation in non-transformed cells [5]: fail to activate p38MAPK | activation of DNA damage response effectors (Chk1, Chk2, γH2AX) [6]: fails to activate Chk1 or Chk2 | cells in G1 [7]: 36.6% | cells in S [7]: 57.0% | EdU incorporation [8]: near complete loss of EdU incorporation | PCNA retention on chromatin [9]: loss of PCNA | DNA synthesis (EdU incorporation) [10]: no inhibition of DNA synthesis | c-Abl activity (pY245, pY412) [11]: inactivates c-Abl
